Measured values published in BindingDB's records for PubMed 9152366 (University of California San Francisco, 1997).
Values joined by “and” are separate entries in the source; they are usually repeats but may differ in a detail not shown here. Identical values can stand only once. Bridge positions count the residues as written; N and C are the ends. Square brackets hold non-standard residues; d marks the D form. Peptide text beside a SMILES is read from it. Nle = CCCC[C@H](N)C(=O)O

Experiments:
[1] = biological target: T1, VIP peptides (Homo sapiens, UniProt P01282)
T1 sequence (P01282 whole entry): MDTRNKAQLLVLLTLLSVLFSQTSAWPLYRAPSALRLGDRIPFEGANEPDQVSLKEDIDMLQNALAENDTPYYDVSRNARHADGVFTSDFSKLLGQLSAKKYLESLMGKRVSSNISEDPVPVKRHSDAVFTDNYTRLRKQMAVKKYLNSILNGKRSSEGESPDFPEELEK

[2] = biological target: T2, Vasoactive intestinal polypeptide receptor 2 (Homo sapiens, UniProt P41587)
T2 sequence (P41587 whole entry): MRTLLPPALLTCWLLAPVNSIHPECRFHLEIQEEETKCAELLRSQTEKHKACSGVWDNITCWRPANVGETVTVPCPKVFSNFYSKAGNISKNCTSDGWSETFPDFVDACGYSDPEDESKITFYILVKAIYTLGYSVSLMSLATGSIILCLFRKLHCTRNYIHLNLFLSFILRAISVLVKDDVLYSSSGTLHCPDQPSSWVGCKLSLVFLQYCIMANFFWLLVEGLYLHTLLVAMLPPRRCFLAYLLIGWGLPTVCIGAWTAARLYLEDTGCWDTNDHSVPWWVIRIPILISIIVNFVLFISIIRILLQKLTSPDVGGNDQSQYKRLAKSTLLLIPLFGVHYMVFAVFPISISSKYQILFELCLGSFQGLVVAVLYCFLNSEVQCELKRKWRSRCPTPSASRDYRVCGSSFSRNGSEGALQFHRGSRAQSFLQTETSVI

In the case of `CCCC[C@H](NC(=O)[C@H](CCC(N)=O)NC(=O)[C@H](CCCCN)NC(=O)[C@H](CCCNC(=N)N)NC(=O)[C@H](CC(C)C)NC(=O)[C@H](CCCCN)NC(=O)[C@@H](NC(=O)[C@H](Cc1ccc(OC)cc1)NC(=O)[C@H](CC(N)=O)NC(=O)[C@H](CCC(=O)O)NC(=O)[C@@H](NC(=O)[C@H](Cc1ccccc1)NC(=O)[C@@H](NC(=O)[C@H](C)NC(=O)[C@H](CC(=O)O)NC(=O)[C@H](CO)NC(=O)[C@H](Cc1c[nH]cn1)NC(C)=O)C(C)C)[C@@H](C)O)[C@@H](C)O)C(=O)N[C@@H](C)C(=O)N[C@@H](C)C(=O)N[C@@H](CCCCN)C(=O)N[C@H]1CCCCNC(=O)C[C@@H](C(=O)N[C@@H](CC(C)C)C(=O)N[C@@H](CCCCN)C(=O)N[C@@H](CCCCN)C(N)=O)NC(=O)[C@H](CC(N)=O)NC(=O)[C@H](CC(C)C)NC(=O)[C@H](Cc2ccc(O)cc2)NC1=O` [CAS_150828-75-4] (Ac-HSDAVFTENY(Me)TKLRKQ[Nle]AAKKYLNDLKK-NH2; lactam 21-25), the Ki [1] is reported as 3.4 nM and the Ki [2] is reported as 16 nM and 9.6 nM.
